Columns and labels:
rats [1] = experiment: Nicotine-induced hypothermia in rats; format: in vivo, rat
Procedure: (§1) (ii) Animals—Young adult (240 g-290 g) male Sprague-Dawley rats (Charles River, USA or Harlan, Israel) were used in the experiments.
(iv) Determination of nicotine-induced hypothermia—Rats were placed individually in experimental cages kept at 25° C. and were allowed to rest for 1 h before drug injection. During this period, body temperature was measured at 15- or 30-min intervals in order to exclude the effect of handling on animal temperature. Body temperature was measured with a rectal thermistor probe (M.R.C, Israel, sensitivity 0.1° C.). The probe was lubricated with petroleum before being inserted into the rectum to a depth of 2 cm. The data are presented as changes in rectal temperature from the basal values. Basal values are those taken immediately before the drug injection (time 0).
Rats were divided into three treatment groups, each of 5 rats, as follows: 1. treatment with nicotine (2 mg/kg); 2. treatment with opipramol (20 mg/kg); 3. treatment with opipramol (20 mg/kg) together with nicotine (2 mg/kg). Rats were injected with nicotine twice on the first day (FIG. 3A, D-1, left panel) and three times on days 2 (FIG. 3A, D-2, middle panel) and 3 (FIG. 3A, D-3, right panel). […] Nicotine was injected with and without opipramol, and body temperature was measured at 30 min intervals. […] FIG. 3A: Each point is the Mean±S.E.M. of change in body temperature compared to the temperature measured at time 0 (before the first injection) for at least five rats. FIG. 3B depicts a bar histogram representing mean±S.E.M. of the maximum change in body temperature compared to the temperature measured just before the injection.
The body temperature (0 C) was measured 30 min post injection. FIG. 7 depicts the maximum decrease in body temperature after each injection.
Nicotine (2 mg/kg), lidocaine (15 mg/kg), and nicotine+lidocaine (2 mg/kg+15 mg/kg) were administered to rats 2× day for two days, following the above protocol.

nAChR = experiment: Nicotine-induced 45Ca2+ uptake (calcium influx) in SK-N-SH human neuroblastoma cells; format: cell-based
Procedure: (i) Cells—SK-N-SH human neuroblastoma cell line was obtained from the American Type Culture Collection (ATTC).
SK-N-SH human neuroblastoma cells, known to express nAChR, were grown in Dulbecco/Vogt Modified Eagle's Minimal Essential Medium (DMEM) to confluency in a 24-well plate. DMEM containing 45Ca^2+ without any other addition (1) or with 50 μM nicotine (2) or with 50 μM nicotine+10 μM opipramol (3) was added to cells grown in 24-well plates and preincubated with medium alone for 15 minutes, then washed rapidly. Intra cellular radioactivity was determined for each condition. The same medium with nicotine was added also to cells that were preincubated for 15 minutes with either 50 μM nicotine alone (4) or with 50 μM nicotine+10 μM opipramol (5). 45Ca2+ uptake was determined after 10 min. Activation of the nicotinic receptors causes calcium influx so it is a measure of the nicotinic receptor activity.

[2] = test system: smooth muscle of a guinea pig ileum; experiment: Nicotine-induced smooth muscle contraction in the guinea pig ileum preparation
Procedure: The free end of a smooth muscle of a guinea pig ileum was attached to a force displacement transducer. Isometric tension of the smooth muscle was continuously monitored by outputting the preamplified transducer signal to a computer.
The ileum preparation was washed by physiological solution 10 min after the addition of nicotine and then nicotine at a final concentration of 25 μM was added again to the muscle preparation for additional 10 min (2nd stimulation; bar 3).

rats [3] = experiment: Elevated plus maze (EPM) anxiety test in rats; format: in vivo, rat
Source text: as §1
(v) Elevated […] Maze (EPM)—The purpose of the EPM is to determine the anxiolytic effects of tested drugs. The time that the experimental animals spend in the open arm of the maze is an indication for the anxiolytic effect, the longer the time the higher the anxiolytic effect. The EPM is a wooden, cross-shaped device, consisting of four arms arranged in the shape of a plus sign. Two of the arms have no side or end walls (open-arms; 30×5×0.25 cm). The other two arms have side walls and end walls, but are open on top (closed arms; 30×5×15 cm). The maze is elevated to a height of 50 cm. The animals are kept in a relatively dark box before exposure to the maze in order to increase their exploratory behavior. The tests were done in a silent environment under dim light. The animals were carried to the laboratory and left there undisturbed for 1 h before the experiment.
This test is used to assess anxiety. Rats were randomly assigned into five groups each containing 5 animals and then tested in an Elevated Plus Maze (EPM). In the first (control) group, rats were injected with saline once a day; in the second group rats were injected with nicotine (0.5 mg/kg or 2 mg/kg) three times a day and were tested in the maze after the third injection; in the third group rats were injected with opipramol (10 mg/kg) three times a day and then were tested in the maze; in the fourth group, rats were injected with opipramol (10 mg/kg) or galantamine (5 mg/kg), and nicotine (2 mg/kg or 0.5 mg/kg) three times a day and were tested in the maze after the last injection. The behavioral response to nicotine in the EPM was assessed 30 min after the first injection, and then again 30 minutes after the third injection.

BDNF mRNA = BDNF mRNA expression in rat cerebral cortex; format: in vivo
Procedure: Nicotine alone (0.5 mg/kg) or opipramol (10 mg/kg) or nicotine (0.5 mg/kg)+opipramol (10 mg/kg) were injected intraperitoneally (ip) to rats (5 per group) at intervals of 2 hours during a single day. The drugs were dissolved in saline and used in the same day. […] Animals were sacrificed 90 min after each injection and brain derived neurotrophic factor (BDNF) and β-actin mRNA were determined in homogenates of the cerebral cortex of each animal.
Homogenates of the cerebral cortex were prepared as follows: Rat brain tissues were sonicated for 15 sec and total RNA was obtained using the Trizol Reagent (Molecular Research Center, Cincinnati, Ohio, USA), according to the manufacturer's instructions. RNA concentrations were quantified by measuring the absorbances at 260 and 280 nm. RNA was reverse transcribed into cDNA during 45 min at 42° c. The cDNA products were diluted 1:40 for BDNF and 1:1000 for β-actin (a housekeeping gene for internal standard). In order to amplify gene specific sequences, PCR techniques were applied using ReadyMix PCR Master Mix (AB-genes, Surrey, UK) and specific primer sequences for BDNF and beta actin. The products were separated by electrophoresis on agarose and quantification of the bands was done by an image analyzer.

CN(C)CCCN1c2ccccc2CCc2ccc(Cl)cc21 [clomipramine]
hypothermic effect of nicotine (rats [1]; clomipramine 30 mg/kg with nicotine 2 mg/kg, consecutive injections 2 h apart): no further reduction in the hypothermic effect | hypothermic effect of nicotine (rats [1]; clomipramine 30 mg/kg with nicotine 2 mg/kg, first injection): inhibited to some extent the effect of nicotine

CCN(CC)CC(=O)Nc1c(C)cccc1C [lidocaine]
hypothermic effect of nicotine (rats [1]; lidocaine 15 mg/kg + nicotine 2 mg/kg, 2x day for two days): maintained the hypothermic effect of nicotine

CN1CCC[C@H]1c1cccnc1 [nicotine, S-3-(1-methyl-2-pyrrolidinyl)pyridine]
calcium influx (45Ca2+ uptake) (nAChR; first exposure to 50 μM nicotine, compared to basal uptake, SK-N-SH cells): caused an increase in calcium influx | calcium influx (45Ca2+ uptake) (nAChR; second exposure to 50 μM nicotine after 15 min preincubation with nicotine alone): considerably reduced | muscle contraction ([2]; 1st stimulation, 25 μM nicotine alone): caused muscle contraction | muscle contraction ([2]; 2nd stimulation with 25 μM nicotine after 1st stimulation with nicotine alone): did not induce muscle contraction | hypothermic effect (rats [1]; nicotine 2 mg/kg alone, 2x day for two days): loss of the hypothermic effect | hypothermic effect (maximum decrease in body temperature) (rats [1]; nicotine 2 mg/kg alone, 3 injections 2 h apart): gradual decrease in the hypothermic effect | magnitude of the decrease in body temperature (rats [1]; nicotine 2 mg/kg repeatedly injected for three consecutive days, P<0.05): became progressively smaller | anxiolytic effect (time in open arm) (rats [3]; nicotine alone, 0.5 mg/kg and 2 mg/kg, second injection): did not induce an anxiolytic effect | time spent in the open arm (anxiolytic effect) (rats [3]; one injection of nicotine): significantly increased | BDNF mRNA level (ratio to β-actin) (BDNF mRNA; nicotine 0.5 mg/kg ip alone, repeated (third) injection): much smaller rise | BDNF mRNA level (ratio to β-actin) (BDNF mRNA; nicotine 0.5 mg/kg ip, first injection): increased

OCCN1CCN(CCCN2c3ccccc3C=Cc3ccccc32)CC1 [opipramol]
calcium uptake (45Ca2+) (nAChR; first stimulation with 50 μM nicotine in the presence of 10 μM opipramol, compared to nicotine alone): only slightly smaller | nAChR desensitization (45Ca2+ uptake at second nicotine stimulation) (nAChR; second stimulation with 50 μM nicotine after 15 min preincubation with 50 μM nicotine + 10 μM test drug): remarkedly reduced | effect of nicotine (muscle contraction) relative to that induced by nicotine alone ([2]; 1st stimulation, 25 μM nicotine in the presence of 10 μM opipramol): about 50% | muscle contraction response to nicotine ([2]; 2nd stimulation with 25 μM nicotine after 1st stimulation in the presence of opipramol): almost full response | duration of the effect of nicotine (muscle contraction) ([2]; nicotine administered together with opipramol, until removal by washing, data not shown): maintained steady for one hour | change in body temperature (rats [1]; opipramol 20 mg/kg alone): only a slight decrease in body temperature | magnitude of the reduction in body temperature (rats [1]; opipramol 20 mg/kg together with nicotine 2 mg/kg, second and third day, after second and third injections, P<0.001): significantly larger than that induced by nicotine alone | anxiolytic effect (time in open arm) (rats [3]; nicotine 0.5 mg/kg together with opipramol 10 mg/kg or galantamine 5 mg/kg, second injection): the anxiolytic effect was seen in the second injection | anxiolytic effect (time in open arm) (rats [3]; nicotine 2 mg/kg together with opipramol 10 mg/kg or galantamine 5 mg/kg): inhibited desensitization | BDNF mRNA level (ratio to β-actin) (BDNF mRNA; nicotine 0.5 mg/kg + opipramol 10 mg/kg ip, third injection): rising even above that which was observed with nicotine alone | BDNF mRNA level (ratio to β-actin) (BDNF mRNA; opipramol 10 mg/kg ip alone, third injection): no effect
